Measurements taken from patent publication US20080269213A1, “8-Hydroxyquinoline compounds and methods thereof” (Wyeth, priority 2006, published 2008).
pIC50: −log10 of the molar value. Read-outs that look alike come from different tables or passages of the source. Each block holds one compound with its values, some of them ahead of it.

Key:
Agg-1 = target: T1, Agg-1 (Homo sapiens, UniProt O75173); experiment: Agg-1 FRET assay; type: biochemical; settings: for pIC50: read-out: Agg1 IC50; for inhibition at 7.4 µM: @ 7400 nM
T1 sequence (O75173 213-837): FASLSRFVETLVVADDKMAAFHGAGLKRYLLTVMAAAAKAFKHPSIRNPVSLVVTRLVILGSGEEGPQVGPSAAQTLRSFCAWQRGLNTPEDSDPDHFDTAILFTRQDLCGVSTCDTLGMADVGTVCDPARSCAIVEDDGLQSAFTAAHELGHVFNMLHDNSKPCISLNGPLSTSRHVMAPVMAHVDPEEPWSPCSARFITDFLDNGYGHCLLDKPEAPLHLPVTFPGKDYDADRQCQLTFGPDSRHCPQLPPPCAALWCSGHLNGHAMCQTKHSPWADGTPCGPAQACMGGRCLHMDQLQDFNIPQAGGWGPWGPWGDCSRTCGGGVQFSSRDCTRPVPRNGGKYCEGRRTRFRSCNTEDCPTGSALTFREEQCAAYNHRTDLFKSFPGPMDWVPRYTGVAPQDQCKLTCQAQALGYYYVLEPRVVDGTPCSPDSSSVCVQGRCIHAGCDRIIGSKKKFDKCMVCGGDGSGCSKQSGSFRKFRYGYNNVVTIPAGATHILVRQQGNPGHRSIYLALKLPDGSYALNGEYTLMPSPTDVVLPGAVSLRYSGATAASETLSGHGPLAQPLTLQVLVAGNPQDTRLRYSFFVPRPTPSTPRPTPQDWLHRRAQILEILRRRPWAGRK
Description: The Agg-1/Agg-2 FRET data for N-[(8-hydroxyquinolin-2-yl)(phenyl)methyl]-2-phenoxyacetamide and 2-{[(phenoxyacetyl)amino](phenyl)methyl}quinolin-8-yl phenoxyacetate is presented in Table 1.

[1] = target: T2, recombinant human Aggrecanase-2 Agg2-Phe628 (Homo sapiens, UniProt Q9UNA0); experiment: Aggrecanase 2 in vitro enzyme assay (Agg-2 FRET, quenched fluorescent peptide substrate); type: biochemical; parameters: purified recombinant human Aggrecanase-2 Agg2-Phe628 (MW=41,737); This is a truncated form of full-length human aggrecanase-2; made in house; host or cells: CHO cells; settings: for inhibition at 11 µM: @ 11000 nM
T2 sequence (Q9UNA0 262-628 limits assumed): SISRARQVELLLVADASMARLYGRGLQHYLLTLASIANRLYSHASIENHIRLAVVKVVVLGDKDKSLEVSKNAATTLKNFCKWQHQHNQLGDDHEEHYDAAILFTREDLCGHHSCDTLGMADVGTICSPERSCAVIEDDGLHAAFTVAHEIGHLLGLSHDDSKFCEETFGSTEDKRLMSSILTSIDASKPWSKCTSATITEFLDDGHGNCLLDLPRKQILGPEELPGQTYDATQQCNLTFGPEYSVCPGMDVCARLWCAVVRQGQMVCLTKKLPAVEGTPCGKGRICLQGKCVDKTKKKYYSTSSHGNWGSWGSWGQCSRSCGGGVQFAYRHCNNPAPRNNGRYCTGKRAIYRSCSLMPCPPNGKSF
In short: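 Kinetic fluorescence (λex 340, λem 420 nm) monitored over 40 min at 30 °C after adding 25 μM final Abz/Dnp brevican-based quenched peptide. Enzyme: recombinant truncated human Agg2-Phe628 from CHO, 0.5 μg/ml final, mixed with inhibitor first; buffer HEPES pH 7.5 with NaCl, CaCl2, CHAPS, glycerol; compounds in duplicate.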

[2] = read-out: Agg-1 IC50 (μM) or % Inhibition
[3] = read-out: Agg-2 IC50 (μM) or % Inhibition
[4] = % inhibition @ 66.7 μM, read-out: Agg-1 IC50 (μM) or % Inhibition
[5] = read-out: Agg-2 FRET Median IC50

SMILES: O=C(COc1ccccc1)NC(Cc1ccc2cccnc2c1O)c1ccccc1 (stereo not drawn)
IC50 (Agg-1; [2]): 2.1 µM | inhibition at 100 µM [1, 3]: 59%

SMILES: O=C(COc1ccccc1)NC(Cc1cc(Cl)c2cccnc2c1O)c1ccc2c(c1)OCO2 (stereo not drawn)
inhibition at 22 µM (Agg-1; [2]): 67% | IC50 [1, 3]: 9.6 µM

SMILES: O=C(NC(Cc1cc(Cl)c2cccnc2c1O)c1ccc(CN2CCOCC2)cc1)c1ccc(-c2ccccc2)cc1 (stereo not drawn)
inhibition at 22 µM (Agg-1; [2]): 59% | inhibition at 22 µM [1, 3]: 50%

SMILES: Cc1ccc(-c2cccc(C(Cc3cc(Cl)c4cccnc4c3O)NC(=O)COCc3ccccc3)c2)s1 (stereo not drawn)
inhibition at 66.7 µM (Agg-1; [4]): 48% | inhibition at 22 µM [1, 3]: 56%

SMILES: Cc1ccc(-c2cccc(C(Cc3cc(Cl)c4cccnc4c3O)NC(=O)C(C)(C)Oc3ccc(Cl)cc3)c2)s1 (stereo not drawn)
inhibition at 66.7 µM (Agg-1; [4]): 47% | inhibition at 22 µM [1, 3]: 51%

SMILES: Cc1ccc(-c2cccc(C(Cc3cc(Cl)c4cccnc4c3O)NC(=O)COc3ccccc3)c2)s1 (stereo not drawn)
inhibition at 66.7 µM (Agg-1; [4]): 42% | inhibition at 22 µM [1, 3]: 58%

SMILES: Cc1ccc(-c2cccc(C(Cc3cc(Cl)c4cccnc4c3O)NC(=O)COc3ccc(C(C)(C)C)cc3)c2)s1 (stereo not drawn)
inhibition at 22 µM (Agg-1; [2]): 46% | inhibition at 200 µM [1, 3]: 56%

SMILES: O=C(COc1ccccc1)NC(Cc1cc(Cl)c2cccnc2c1O)c1cccc(CN2CCCC2)c1 (stereo not drawn)
inhibition at 200 µM (Agg-1; [2]): 56% | IC50 [1, 3]: 20 µM

SMILES: CC(C)(Oc1ccc(Cl)cc1)C(=O)NC(Cc1cc(Cl)c2cccnc2c1O)c1cccc(CN2CCCC2)c1 (stereo not drawn)
inhibition at 66.7 µM (Agg-1; [4]): 50% | inhibition at 22 µM [1, 3]: 49%

SMILES: CN(C)Cc1ccc(C(Cc2cc(Cl)c3cccnc3c2O)NC(=O)COc2ccccc2)o1 (stereo not drawn)
IC50 (Agg-1; [2]): 16.8 µM | inhibition at 200 µM [1, 3]: 68%

SMILES: CC(C)C(=O)NC(Cc1cc(Cl)c2cccnc2c1O)c1ccc(CN(C)C)o1 (stereo not drawn)
inhibition at 200 µM (Agg-1; [2]): 56% | inhibition at 200 µM [1, 3]: 49%

SMILES: O=C(COc1ccc(-c2ccccc2)cc1)NC(c1ccccc1Cl)c1cc(Cl)c2cccnc2c1O (stereo not drawn) [2-(biphenyl-4-yloxy)-N-[(5-chloro-8-hydroxyquinolin-7-yl)(2-chlorophenyl)methyl]acetamide]
pIC50 (Agg-1): 3.70 to 4.18 | pIC50 ([1]; read-out: Agg2 IC50): 5.48

SMILES: O=C(COc1ccc(-c2ccccc2)cc1)NC(c1ccccc1)c1cc(Cl)c2cccnc2c1O (stereo not drawn) [2-(biphenyl-4-yloxy)-N-[(5-chloro-8-hydroxyquinolin-7-yl)(phenyl)methyl]acetamide]
pIC50 (Agg-1): 4.70 to 5.13 | pIC50 ([1]; read-out: Agg2 IC50): 5.70

SMILES: COc1ccccc1C(NC(=O)COc1ccccc1)c1cc(Cl)c2cccnc2c1O (stereo not drawn) [Example 122, N-[(5-chloro-8-hydroxyquinolin-7-yl)(2-methoxyphenyl)methyl]-2-phenoxyacetamide]
inhibition at 667 µM (Agg-1; @ 667000 nM, read-out: Agg1 %): 48% | pIC50 ([1]; read-out: Agg2 IC50): 5.64 | pIC50 [1, 5]: 5.63

SMILES: COc1cccc(C(NC(=O)COc2ccccc2)c2cc(Cl)c3cccnc3c2O)c1 (stereo not drawn) [Example 126, N-[(5-chloro-8-hydroxyquinolin-7-yl)(3-methoxyphenyl)methyl]-2-phenoxyacetamide]
inhibition at 22 µM (Agg-1; @ 22000 nM, read-out: Agg1 %): 44% | pIC50 ([1]; read-out: Agg2 IC50): 5.74

SMILES: CCOC(=O)Cc1cccc(C(NC(=O)COc2ccccc2)c2cc(Cl)c3cccnc3c2O)c1 (stereo not drawn) [Example 127, ethyl(3-{(5-chloro-8-hydroxyquinolin-7-yl)[(phenoxyacetyl)amino]methyl}phenyl)acetate]
inhibition at 22 µM (Agg-1; @ 22000 nM, read-out: Agg1 %): 41% | inhibition at 33 µM ([1]; @ 33000 nM): 50% | pIC50 [1, 5]: 5.84

SMILES: COc1ccc(Oc2cccc(C(NC(=O)COc3ccccc3)c3cc(Cl)c4cccnc4c3O)c2)cc1 (stereo not drawn) [Example 128, N-{(5-chloro-8-hydroxyquinolin-7-yl)[3-(4-methoxyphenoxy)phenyl]methyl}-2-phenoxyacetamide]
inhibition at 7.4 µM (Agg-1; read-out: Agg1 %): 57% | pIC50 ([1]; read-out: Agg2 IC50): 5.96

SMILES: O=C(COc1ccccc1)NC(c1cccc(Oc2ccc(Cl)cc2)c1)c1cc(Cl)c2cccnc2c1O (stereo not drawn) [Example 129, N-{(5-chloro-8-hydroxyquinolin-7-yl)[3-(4-chlorophenoxy)phenyl]methyl}-2-phenoxyacetamide]
inhibition at 22 µM (Agg-1; @ 22000 nM, read-out: Agg1 %): 51% | inhibition at 11 µM [1]: 52%

SMILES: Cc1ccc(Oc2cccc(C(NC(=O)COc3ccccc3)c3cc(Cl)c4cccnc4c3O)c2)cc1 (stereo not drawn) [Example 130, N-{(5-chloro-8-hydroxyquinolin-7-yl)[3-(4-methylphenoxy)phenyl]methyl}-2-phenoxyacetamide]
inhibition at 22 µM (Agg-1; @ 22000 nM, read-out: Agg1 %): 52% | inhibition at 7.4 µM ([1]; @ 7400 nM): 58%

SMILES: O=C(COc1ccccc1)NC(c1cccc(Oc2ccccc2)c1)c1cc(Cl)c2cccnc2c1O (stereo not drawn) [Example 131, N-[(5-chloro-8-hydroxyquinolin-7-yl)(3-phenoxyphenyl)methyl]-2-phenoxyacetamide]
pIC50 (Agg-1): < 4.17 | pIC50 ([1]; read-out: Agg2 IC50): 5.39

Next, values leading:

inhibition at […] (Agg-1; @ 2500 nM, read-out: Agg1 %): 54% | pIC50 ([1]; read-out: Agg2 IC50): 5.78
SMILES: CN(C)c1ccc(C(NC(=O)COc2ccccc2)c2cc(Cl)c3cccnc3c2O)cc1 (stereo not drawn) [Example 134, N-{(5-chloro-8-hydroxyquinolin-7-yl)[4-(dimethylamino)phenyl]methyl}-2-phenoxyacetamide]

pIC50 (Agg-1): 4.17 to 4.66 | pIC50 ([1]; read-out: Agg2 IC50): 5.55
SMILES: CCN(CC)c1ccc(C(NC(=O)COc2ccccc2)c2cc(Cl)c3cccnc3c2O)cc1 (stereo not drawn) [Example 135, N-{(5-chloro-8-hydroxyquinolin-7-yl)[4-(diethylamino)phenyl]methyl}-2-phenoxyacetamide]

inhibition at 66.7 µM (Agg-1; @ 66700 nM, read-out: Agg1 %): 40% | inhibition at 33.3 µM ([1]; @ 33300 nM): 52%
SMILES: CCCCN(CCCC)c1ccc(C(NC(=O)COc2ccccc2)c2cc(Cl)c3cccnc3c2O)cc1 (stereo not drawn) [Example 136, N-{(5-chloro-8-hydroxyquinolin-7-yl)[4-(dibutylamino)phenyl]methyl}-2-phenoxyacetamide]

inhibition at 7.4 µM (Agg-1; read-out: Agg1 %): 48% | inhibition at […] ([1]; @ 1200 nM): 58% | Agg-2 FRET Median PCT INHIB ([1]; concentration not given): 50%
SMILES: O=C(COc1ccccc1)NC(c1ccc(C#Cc2ccccc2)cc1)c1cc(Cl)c2cccnc2c1O (stereo not drawn) [Example 141, N-{(5-chloro-8-hydroxyquinolin-7-yl)[4-(phenylethynyl)phenyl]methyl}-2-phenoxyacetamide]

pIC50 (Agg-1): 5.24 | pIC50 ([1]; read-out: Agg2 IC50): 5.92
SMILES: O=C(COc1ccccc1)NC(c1ccc(-n2cccn2)cc1)c1cc(Cl)c2cccnc2c1O (stereo not drawn) [Example 145, N-{(5-chloro-8-hydroxyquinolin-7-yl)[4-(1H-pyrazol-1-yl)phenyl]methyl}-2-phenoxyacetamide]

inhibition at 66.7 µM (Agg-1; @ 66700 nM, read-out: Agg1 %): 42% | inhibition at 11 µM [1]: 49%
SMILES: CC(C)(C)c1csc(-c2ccc(C(NC(=O)COc3ccccc3)c3cc(Cl)c4cccnc4c3O)cc2)n1 (stereo not drawn) [Example 146, N-[[4-(4-tert-butyl-1,3-thiazol-2-yl)phenyl](5-chloro-8-hydroxyquinolin-7-yl)methyl]-2-phenoxyacetamide]

pIC50 (Agg-1): 5.33 | pIC50 ([1]; read-out: Agg2 IC50): 5.97 | pIC50 [1, 5]: 5.97
SMILES: O=C(COc1ccccc1)NC(c1ccc(-c2csnn2)cc1)c1cc(Cl)c2cccnc2c1O (stereo not drawn) [Example 147, N-{(5-chloro-8-hydroxyquinolin-7-yl)[4-(1,2,3-thiadiazol-4-yl)phenyl]methyl}-2-phenoxyacetamide]

inhibition at 22.2 µM (Agg-1; @ 22200 nM, read-out: Agg1 %): 50% | pIC50 ([1]; read-out: Agg2 IC50): 5.64
SMILES: COc1ccc2cc(C(NC(=O)COc3ccccc3)c3cc(Cl)c4cccnc4c3O)ccc2c1 (stereo not drawn) [Example 165, N-[(5-chloro-8-hydroxyquinolin-7-yl)(6-methoxy-2-naphthyl)methyl]-2-phenoxyacetamide]

inhibition at 66.7 µM (Agg-1; @ 66700 nM, read-out: Agg1 %): 49% | pIC50 ([1]; read-out: Agg2 IC50): 5.92 to 6.40
SMILES: O=C(COc1ccccc1)NC(c1cc2ccccc2o1)c1cc(Cl)c2cccnc2c1O (stereo not drawn) [Example 168, N-[1-benzofuran-2-yl(5-chloro-8-hydroxyquinolin-7-yl)methyl]-2-phenoxyacetamide]

inhibition at 22 µM (Agg-1; @ 22000 nM, read-out: Agg1 %): 52%
SMILES: C=CCOc1ccc(C(NC(=O)COc2ccccc2)c2cc(Cl)c3cccnc3c2O)cc1 (stereo not drawn) [N-[[4-(allyloxy)phenyl](5-chloro-8-hydroxyquinolin-7-yl)methyl]-2-phenoxyacetamide]
